≈ marks a conversion by molar mass, not a printed value.
Key:
[1] = system: HUVEC (human umbilical vein endothelial cells); experiment: Angiogenesis, tube formation on Matrigel, Frondoside B (Example 5); assay type: cell-based; details: concentrations in the range of 1 μM and greater; contemplated
Experimental: (§1) Test Substance and Concentration.
Cell Line and Culture Media. […] The culture medium used is Endothelial Cell Growth Medium with 10% fetal bovine serum, which is supplemented with 1% Antibiotic-Antimycotic.
Evaluation of anti-proliferation for test substances. Matrigel matrix is thawed, kept on ice at 4° C. and 50 μL transferred to each well of a 96-microwell tissue culture plate. The plate is incubated at 37° C. for at least one hour to allow the matrix solution to solidify before treatment.
(§2) Aliquots of 200 μl of (HUVEC) suspension (about 1.5×10^4 cells/well) are placed in 96-well microtiter plate. Two microliters of compound test solution or vehicle (40% DMSO) is then added per well in duplicate and incubated at 5% CO2 at 37° C. for 18 hours. The final concentration of DMSO is 0.4%. […] Failure to form continuous networks between cell bodies in the presence of test substance is photographed and scored as to the extent of tube disruption at a magnification of 40×. […] The minimum inhibitory concentration (MIC) is calculated to assess the effect of the test substance on angiogenesis.

[2] = system: angiogenesis in the animal; experiment: Treatment of animals, anti-angiogenic evaluation (Example 6); assay type: in vivo; details: contemplated; range of appropriate doses
Experimental: Frondoside A or B is evaluated for anti-angiogenic (e.g., for research, drug screening or therapeutic purposes) in live animals. Animals (e.g., having or modeling a disease characterized by unwanted angiogenesis) are treated with a range of appropriate doses of Frondoside A or B. Exemplary dosages and dosage schedules include, but are not limited to, those described herein.

cancer cells = experiment: Anti-cancer / apoptotic promoting activity, method not described
[3] = system: PC-3 (human prostate adenocarcinoma); experiment: cells; details: for Percent Growth (Mean ± SEM, n = 2): 72-hour
Experimental: Test Substance and Concentration. Frondoside A (FAS) was dissolved in 100% DMSO and then diluted with sterile distilled water to obtain initial working solutions of 1000, 300, 100, 30, and 10 μM in 40% DMSO. […]
Cell Line and Culture Media. The tumor cell line PC-3 (human prostate adenocarcinoma), obtained from American Type Culture Collection (ATCC CRL-1435), was incubated in air atmosphere of 5% CO2 at 37° C. The culture medium used was F-12K Nutrient Mixture (Kaighn's Modification) with 3% fetal bovine serum, which was supplemented with 1% Antibiotic-Antimycotic.
Evaluation of anti-proliferation for test substances. Aliquots of 100 μl of cell suspension (about 2.5×10^3 cells/well) were placed in 96-well microtiter plates in an atmosphere of 5% CO2 at 37° C. […] Thus, the final concentration of DMSO was 0.4%. The Frondoside A was evaluated for possible inhibitory effects on cell proliferation at concentrations of 10, 3, 1, 0.3 and 0.1 μM. At the end of incubation, 20 μl of 90% alamarBlue reagent was added to each well for another 6-hour incubation before detection of cell viability by fluorescent intensity. Fluorescent intensity was measured using a Spectrafluor Plus plate reader with excitation at 530 nm and emission at 590 nm.
(§3) Determination of IC50, TGI and LC50. The measured results was calculated by the following formula: PG(%)=100%×(Mean Ftest−Mean Ftime0)/(Mean Fctrl−Mean Ftime0) If (Mean Ftest−Mean Ftime0)<0, then PG (%)=100%×(Mean Ftest−Mean Ftime0)/(Mean Ftime0−Mean Fblank) Where: • PG: percent growth • Mean Ftime0=The average of 2 measured fluorescent intensities of reduced alamarBlue at the time just before exposure of cells to the test substance. • Mean Ftest=The average of 2 measured fluorescent intensities of alamarBlue after 72-hour exposure of cells to the test substance. • Mean Fctrl=The average of 2 measured fluorescent intensities of alamarBlue after 72-hour incubation without the test substance. • Mean Fblank=The average of 2 measured fluorescent intensities of alamarBlue in medium without cells after 72-hour incubation.

[4] = system: DLD-1 (human colon adenocarcinoma); experiment: cells; details: for Percent Growth (Mean ± SEM, n = 2): 72-hour
Experimental: Test Substance and Concentration. Frondoside A (CBR-24) was dissolved in 100% DMSO and then diluted with sterile distilled water to obtain initial working solutions of 10000, 1000, 100, 10, and 1 μM in 40% DMSO. A 100-fold dilution was further made in culture media to generate final assay concentration of 100, 10, 1, 0.1 and 0.01 μM in 0.4% of DMSO.
Cell Line and Culture Media. The tumor cell line DLD-1 (human colon adenocarcinoma), obtained from American Type Culture Collection (ATCC CCL-221), was incubated in 95% air-5% CO2 gas mixture at 37° C. The culture medium used was RPMI 1640 with 10% fetal bovine serum, which was supplemented with 1% Antibiotic-Antimycotic.
Evaluation of anti-proliferation for test substances. Aliquots of 100 μl of cell suspension (about 2.5×10^3 cells/well) were placed in 96-well microtiter plates in an atmosphere of 5% CO2 at 37° C. […] Thus, the final concentration of DMSO was 0.4%. The Frondoside A was evaluated for possible inhibitory effects on cell proliferation at concentrations of 100, 10, 1, 0.1 and 0.01 μM. At the end of incubation, 20 μl of 90% alamarBlue reagent was added to each well for another 6 hour incubation before detection of cell viability by fluorescent intensity. Fluorescent intensity was measured using a Spectrafluor Plus plate reader with excitation at 530 nm and emission at 590 nm.
as §3, with “were” for “was”

[5] = system: HUVEC (human umbilical vein endothelial cells); experiment: Angiogenesis, tube formation on Matrigel; assay type: cell-based
Experimental: as §1
Cell Line and Culture Media.
Evaluation of anti-proliferation for test substances. Matrigel matrix was thawed, kept on ice at 4° C. and 50 μL transferred to each well of a 96-microwell tissue culture plate. The plate was incubated at 37° C. for at least one hour to allow the matrix solution to solidify before treatment.
as §2, with “cells/well) were” for “cells/well) are”, “DMSO) was” for “DMSO) is”, “DMSO was” for “DMSO is”, “substance was” for “substance is”, “(MIC) was” for “(MIC) is”

With “3 beta-O-{3-O-methyl-beta-D-glucopyranosyl-(1→3)-O-beta-D-6-sulfonatoglucopyranosyl-(1→4)-O-[beta-D-xylopyranosyl-(1→2)]-O-beta-D-quinovopyranosyl-(1→2)-O-beta-D-4-sulfonatoxylopyranosyl}-holost-7-ene sodium (or potassium) salt [Frondoside B]” the “inhibition of tube formation relative to the vehicle-treated controls” value [1] was “significant inhibition of tube formation”, the “angiogenesis in the animal” value [2] was “inhibits angiogenesis” and the anti-cancer activity (cancer cells; no test described) was “showed anti-cancer activity”. For the same compound, the “apoptotic promoting activity in cancer cells” value (cancer cells; no test described for Frondoside B) was “apoptotic promoting activity”.

For `CO[C@@]12[C@H](COC(N)=O)C3=C(C(=O)C(C)=C(N)C3=O)N1C[C@@H]1N[C@@H]12` [Mitomycin, reference compound], the IC50 ([3]; Homo sapiens, read-out: IC50 (50% Inhibition Concentration)) was 130 nM, the “Percent Growth (Mean ± SEM, n = 2)” value ([3]; PC-3, 0.001 μM) was 103 ± 1% and the “Percent Growth (Mean ± SEM, n = 2)” value ([3]; PC-3, 0.01 μM) was 107 ± 1%. For the same compound, the “Percent Growth (Mean ± SEM, n = 2)” value ([3]; PC-3, 0.1 μM) was 35 ± 0%, the “Percent Growth (Mean ± SEM, n = 2)” value ([3]; PC-3, 1 μM) was 6 ± 1% and the “Percent Growth (Mean ± SEM, n = 2)” value ([3]; PC-3, 10 μM) was −77 ± 2%. For the same compound, the “TGI (Total Growth Inhibition)” value ([3]; PC-3, semi-quantitative, nonlinear regression) was 750 nM, the “activity of standard reference agent on PC-3 growth” value ([3]; at <10 mM) was “Significant activity” and the “Percent Growth (Mean ± SEM, n = 2)” value ([4]; DLD-1, 0.001 μM) was 96 ± 5%. The “Percent Growth (Mean ± SEM, n = 2)” value ([4]; DLD-1, 0.01 μM) was 83 ± 8%, the “Percent Growth (Mean ± SEM, n = 2)” value ([4]; DLD-1, 0.1 μM) was 66 ± 5% and the “Percent Growth (Mean ± SEM, n = 2)” value ([4]; DLD-1, 1 μM) was 31 ± 4%. The “Percent Growth (Mean ± SEM, n = 2)” value ([4]; DLD-1, 10 μM) was −11 ± 7%, the “TGI (Total Growth Inhibition)” value ([4]; DLD-1, semi-quantitative, nonlinear regression) was 5500 nM and the IC50 ([4]; Homo sapiens, DLD-1, read-out: IC50 (50% Inhibition Concentration)) was 330 nM. For the same compound, the “activity of positive control on DLD-1 growth” value ([4]; at <10 μM) was “Significant activity”.

`Cc1ccc(C(=O)Nc2ccc(S(=O)(=O)O)c3cc(S(=O)(=O)O)cc(S(=O)(=O)O)c23)cc1NC(=O)c1cccc(NC(=O)Nc2cccc(C(=O)Nc3cc(C(=O)Nc4ccc(S(=O)(=O)O)c5cc(S(=O)(=O)O)cc(S(=O)(=O)O)c45)ccc3C)c2)c1` [Suramin, reference compound] was tested, and the “inhibition of tube formation, standard reference agent” value ([5]; 10 μM) was “significant inhibition”, the inhibition at 0.3 µM ([5]; Homo sapiens, HUVEC, 0.3 μM, 18 hours, read-out: %, Inhibition of the total tube length (Mean ± SEM, n = 2)) was -1 ± 8% and the inhibition at 1 µM ([5]; Homo sapiens, HUVEC, 1 μM, 18 hours, read-out: %, Inhibition of the total tube length (Mean ± SEM, n = 2)) was -1 ± 7%. The inhibition at 3 µM ([5]; Homo sapiens, HUVEC, 3 μM, 18 hours, read-out: %, Inhibition of the total tube length (Mean ± SEM, n = 2)) was 20 ± 8%, the inhibition at 10 µM ([5]; Homo sapiens, HUVEC, 10 μM, 18 hours, read-out: %, Inhibition of the total tube length (Mean ± SEM, n = 2)) was 74% and the inhibition at 30 µM ([5]; Homo sapiens, HUVEC, 30 μM, 18 hours, read-out: %, Inhibition of the total tube length (Mean ± SEM, n = 2)) was 100%. For the same compound, the “MIC (Minimum Inhibitory Concentration)” value ([5]; tube formation, significant inhibition ≧30%) was 10 µM (≈ 13 µg/mL).

Reference: US7144867B2, “Anticancer glycoside compounds” (priority 2004, dated 2006)
